Measurements as given in patent US20050153856A1, “Methods and compositions for killing spores” (priority 2002, published 2005).

Test system: Bacillus thuringiensis spores
Test: Killing of spores (Example 2): microtiter serial 10-fold dilution, growth read with MTT
Assay type: cell-based
Details: wells 7-8: KI only, no laccase, no methylsyringate, 1 hour 24 degrees Celsius pH 6.5
Method: Spore suspension was pipetted into the wells in row A of a microtiter plate. The reaction was initiated by the addition of laccase solution.
The microtiter plate was incubated at room temperature (24 degrees Celsius) for 1 hour.
In the tables growth is indicated with a “+” symbol.

Measured: growth

[I-].[K+] [KI, Potassium iodide]
+: 10-fold dilution step 4 | listed as B, 10-fold dilution step 1 | listed as C, 10-fold dilution step 2 | listed as D, 10-fold dilution step 3 | listed as F, 10-fold dilution step 5 | listed as G, 10-fold dilution step 6
